Patent US20220315574A1, “Beta-Arrestin-Modulating Compounds and Methods of Using Same” (Duke University, priority 2019, published 2022)
Where a name gives a salt, the structure may show the parent alone.

How the values were obtained:
βarr1 = target: T1, βarr1 (Rattus norvegicus, UniProt P29066); test: Binding affinity (Kd) by ITC / thermal shift; conditions: Cmpd-30 by ITC; other three by combination of ITC and thermal shift; read-out: Kd (dissociation constant), βarr1
T1 construct: made in house
T1 sequence (P29066 whole entry): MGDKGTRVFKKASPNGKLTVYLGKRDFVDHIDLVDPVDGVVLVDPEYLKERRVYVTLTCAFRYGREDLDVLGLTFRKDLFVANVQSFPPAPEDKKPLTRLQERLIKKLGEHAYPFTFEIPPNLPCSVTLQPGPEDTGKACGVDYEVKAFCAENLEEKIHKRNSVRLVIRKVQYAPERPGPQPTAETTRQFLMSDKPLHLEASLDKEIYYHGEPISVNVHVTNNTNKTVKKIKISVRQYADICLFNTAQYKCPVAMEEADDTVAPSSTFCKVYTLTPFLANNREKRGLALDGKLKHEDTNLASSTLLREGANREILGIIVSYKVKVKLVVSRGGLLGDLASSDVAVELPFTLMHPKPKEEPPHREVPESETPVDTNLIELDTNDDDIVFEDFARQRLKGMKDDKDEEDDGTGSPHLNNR
Procedure: A high-throughput differential scanning fluorimetry-based thermal shift screen was developed to identify potential βarr small-molecule modulators present in the collection of structurally diverse, drug-like small-molecule compound library described above. The screen was performed using the StepOnePlus™ Real-Time PCR System (Applied Biosystems, Foster City, Calif.). Melting temperature changes were monitored with the use of a reporter fluorescent probe, SYPRO Orange (Thermo Fisher Scientific). Proteins were buffered in a 20 mM HEPES pH 7.5, 100 mM NaCl solution. All reactions were set up in a 96-well plate at final volumes of 20 μl. […] The temperature was raised with a step of 0.5° C. per 30 second from 25° C. to 99° C. and fluorescence readings were taken at each interval. Melting curves were directly exported from the instrument and were analyzed using Applied Biosystems® Protein Thermal Shift™ Software. Melting temperature (Tm) was calculated by plotting the first derivative of the fluorescence emission as a function of temperature [−dF/dT]. […]
ITC measurements were made using the MicroCal iTC200 system (MicroCal, Malvern, Pa.). […] Data were analyzed using MicroCal Origin software program to obtain association constant (Ka=1/Kd), stoichiometry (N), and thermodynamic parameters such as enthalpy (ΔH) and entropy (ΔS) of binding.

ERK2-βarr2 complex = ERK2-βarr2 complex (Rattus norvegicus, UniProt P29067); test: Pull-down of 3×Flag-ERK2 with βarr2; format: binding; conditions: series of concentrations of compound
Sequence of ERK2-βarr2 complex (P29067 whole entry): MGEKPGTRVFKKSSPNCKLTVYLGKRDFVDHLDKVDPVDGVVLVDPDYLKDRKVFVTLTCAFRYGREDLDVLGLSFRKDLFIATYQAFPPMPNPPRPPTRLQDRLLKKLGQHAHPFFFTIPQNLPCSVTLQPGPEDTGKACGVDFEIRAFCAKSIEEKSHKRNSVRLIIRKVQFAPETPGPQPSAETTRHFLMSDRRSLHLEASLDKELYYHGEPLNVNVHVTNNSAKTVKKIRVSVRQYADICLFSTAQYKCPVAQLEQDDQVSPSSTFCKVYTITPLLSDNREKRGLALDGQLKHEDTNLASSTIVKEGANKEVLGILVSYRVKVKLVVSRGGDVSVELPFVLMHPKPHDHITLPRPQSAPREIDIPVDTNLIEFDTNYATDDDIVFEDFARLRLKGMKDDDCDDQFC
Sequence of ERK2-βarr2 complex (P28482 whole entry partner): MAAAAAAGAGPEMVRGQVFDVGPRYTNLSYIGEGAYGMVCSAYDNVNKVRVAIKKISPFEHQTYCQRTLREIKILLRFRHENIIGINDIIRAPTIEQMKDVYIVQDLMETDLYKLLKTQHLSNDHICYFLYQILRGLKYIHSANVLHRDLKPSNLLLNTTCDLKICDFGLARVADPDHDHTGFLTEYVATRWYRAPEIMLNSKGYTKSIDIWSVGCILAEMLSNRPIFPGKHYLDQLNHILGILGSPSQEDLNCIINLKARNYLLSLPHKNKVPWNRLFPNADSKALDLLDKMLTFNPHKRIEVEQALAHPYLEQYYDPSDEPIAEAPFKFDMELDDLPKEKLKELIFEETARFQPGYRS
Procedure: Given this surprising result on the ability of Cmpd-30 to activate ERK βarr1/2-dependent but receptor independent manner, next it was determined whether βarr2 and ERK2 can physically interact in the presence of Cmpd-30 by a pull-down assay. Purified 3×Flag-ERK2 was incubated with βarr2 in the presence of a series of concentrations of Cmpd-30 or vehicle.

βarr2 = βarr2 (Rattus norvegicus, UniProt P29067); test: Dynamic light scattering (DLS) of βarr2; design: final βarr2 (truncated βarr2 at 394) concentration of ˜1 mg/mL; made in house; conditions: control βarr2 7.1 nm; Cmpd-30 60 μM
Sequence of βarr2 (P29067 1-394): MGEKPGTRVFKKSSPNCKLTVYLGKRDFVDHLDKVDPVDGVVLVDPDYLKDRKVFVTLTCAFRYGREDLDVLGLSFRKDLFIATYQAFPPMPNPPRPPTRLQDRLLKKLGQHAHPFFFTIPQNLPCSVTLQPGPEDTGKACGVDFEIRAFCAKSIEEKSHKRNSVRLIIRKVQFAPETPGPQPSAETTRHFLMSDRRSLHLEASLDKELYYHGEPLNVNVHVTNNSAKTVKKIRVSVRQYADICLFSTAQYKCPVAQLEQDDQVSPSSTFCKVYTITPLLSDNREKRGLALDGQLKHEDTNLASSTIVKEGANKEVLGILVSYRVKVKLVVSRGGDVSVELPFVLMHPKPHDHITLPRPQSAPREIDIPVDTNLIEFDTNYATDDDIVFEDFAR
Procedure: DLS was performed on a Zetasizer Nano ZS instrument (Malvern Instruments, UK) at an excitation He—Ne laser source of 633 nm and a detector at a scattering angle of 173°. The measurements were obtained at 25° C. and defined time intervals. A low volume (100 μl) disposable sample cuvette was used (BRAND, Wertheim, Germany). The protein solutions used for all particle size measurements were at a final βarr2 (truncated βarr2 at 394) concentration of ˜1 mg/mL (20 μM) in a buffer consisting of […] (pH 7.4) and 150 mM NaCl in presence of Cmpd-30 (60 μM), IP6 (300 uM) or vehicle (DMSO). Size distributions of scattering particles of different βarr2 sample were obtained after data analysis performed on intensity and volume size distribution curves and the molecular mass and Z-average size calculated using Malvern DTS software.

Row | particle (hydrodynamic) diameter of βarr2 (βarr2) | Structure (SMILES) | Kd (βarr1) | ERK2-βarr2 complex formation (ERK2-βarr2 complex)
1 |  | C=C1C(=O)C23[C@H](O)C1CC[C@H]2[C@]12COC3(O)[C@@H](O)[C@@H]1C(C)(C)CC[C@@H]2O [Cmpd-5, (1R,2S,10S,11R,15S,18R)-9,10,15,18-tetrahydroxy-12,12-dimethyl-6-methylidene-17-oxapentacyclo[7.6.2.15,8.01,11.02,8]octadecan-7-one] | 233 nM | 
2 | 8.2 nm | CN(C)c1n/c(=N/Cc2ccco2)ss1 [Cmpd-30, 5-(furan-2-ylmethylimino)-N,N-dimethyl-1,2,4-dithiazol-3-amine;hydrobromide] | 9.3 nM | forms a complex in vitro with βarr2 in a Cmpd-30-dependent manner
